Results: PubChem BioAssay (NCI)
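The compound was tested at five concentrations on cells cultured in 96-well plates, with a 48-hour exposure period. TGI marks complete inhibition of growth.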

Legend:
Experiment in all cases: NCI-60 cell line screen, 48 h
UO-31 renal = tested on: UO-31 renal
NCI-H522 lung = tested on: NCI-H522 lung
NCI-H460 lung = tested on: NCI-H460 lung
COLO 205 colon = tested on: COLO 205 colon
KM12 colon = tested on: KM12 colon
K-562 leukemia = tested on: K-562 leukemia
EKVX NSCLC = tested on: EKVX NSCLC
SF-295 CNS = tested on: SF-295 CNS
M14 melanoma = tested on: M14 melanoma
T-47D breast = tested on: T-47D breast
DU-145 prostate = tested on: DU-145 prostate
TK-10 renal = tested on: TK-10 renal
SK-MEL-5 melanoma = tested on: SK-MEL-5 melanoma
SNB-75 CNS = tested on: SNB-75 CNS
786-0 renal = tested on: 786-0 renal
A549 NSCLC = tested on: A549 NSCLC
NCI-H226 lung = tested on: NCI-H226 lung
HT29 colon = tested on: HT29 colon
HOP-62 NSCLC = tested on: HOP-62 NSCLC
OVCAR-3 ovarian = tested on: OVCAR-3 ovarian
SK-OV-3 ovarian = tested on: SK-OV-3 ovarian
MALME-3M melanoma = tested on: MALME-3M melanoma
HCT-15 colon = tested on: HCT-15 colon
SF-539 CNS = tested on: SF-539 CNS
NCI/ADR-RES ovarian = tested on: NCI/ADR-RES ovarian
OVCAR-8 ovarian = tested on: OVCAR-8 ovarian
RPMI-8226 leukemia = tested on: RPMI-8226 leukemia
MDA-MB-231 breast = tested on: MDA-MB-231 breast
NCI-H23 lung = tested on: NCI-H23 lung
SW-620 colon = tested on: SW-620 colon
SNB-19 CNS = tested on: SNB-19 CNS
MOLT-4 leukemia = tested on: MOLT-4 leukemia
LOX IMVI melanoma = tested on: LOX IMVI melanoma
U251 CNS = tested on: U251 CNS
MDA-N = tested on: MDA-N
A498 renal = tested on: A498 renal
OVCAR-4 ovarian = tested on: OVCAR-4 ovarian
RXF 393 renal = tested on: RXF 393 renal
HOP-92 NSCLC = tested on: HOP-92 NSCLC
IGROV1 ovarian = tested on: IGROV1 ovarian
SN12C renal = tested on: SN12C renal
SF-268 CNS = tested on: SF-268 CNS
HCT-116 colon = tested on: HCT-116 colon
ACHN renal = tested on: ACHN renal
OVCAR-5 ovarian = tested on: OVCAR-5 ovarian
UACC-257 melanoma = tested on: UACC-257 melanoma
MDA-MB-435 = tested on: MDA-MB-435
SK-MEL-28 melanoma = tested on: SK-MEL-28 melanoma
CAKI-1 renal = tested on: CAKI-1 renal
BT-549 breast = tested on: BT-549 breast
SR leukemia = tested on: SR leukemia
UACC-62 melanoma = tested on: UACC-62 melanoma
HL-60(TB) leukemia = tested on: HL-60(TB) leukemia
PC-3 prostate = tested on: PC-3 prostate
CCRF-CEM leukemia = tested on: CCRF-CEM leukemia
HCC-2998 colon = tested on: HCC-2998 colon
SK-MEL-2 melanoma = tested on: SK-MEL-2 melanoma
MCF7 breast = tested on: MCF7 breast

Question: What does the source list for `CC(=O)[C@@]1(C)CC2(CCN(C)CC2)OC1C` (stereo not given in full)?
Answer: TGI (UO-31 renal): > 100 µM; TGI (NCI-H522 lung): > 100 µM; TGI (NCI-H460 lung): > 100 µM; TGI (COLO 205 colon): > 100 µM; TGI (KM12 colon): > 100 µM; TGI (K-562 leukemia): > 100 µM; TGI (EKVX NSCLC): > 100 µM; TGI (SF-295 CNS): > 100 µM; TGI (M14 melanoma): > 100 µM; TGI (T-47D breast): > 100 µM; TGI (DU-145 prostate): > 100 µM; TGI (TK-10 renal): > 100 µM; TGI (SK-MEL-5 melanoma): > 100 µM; TGI (SNB-75 CNS): > 100 µM; TGI (786-0 renal): > 100 µM; TGI (A549 NSCLC): > 100 µM; TGI (NCI-H226 lung): > 100 µM; TGI (HT29 colon): > 100 µM; TGI (HOP-62 NSCLC): > 100 µM; TGI (OVCAR-3 ovarian): > 100 µM; TGI (SK-OV-3 ovarian): > 100 µM; TGI (MALME-3M melanoma): > 100 µM; TGI (HCT-15 colon): > 100 µM; TGI (SF-539 CNS): > 100 µM; TGI (NCI/ADR-RES ovarian): > 100 µM; TGI (OVCAR-8 ovarian): > 100 µM; TGI (RPMI-8226 leukemia): > 100 µM; TGI (MDA-MB-231 breast): > 100 µM; TGI (NCI-H23 lung): > 100 µM; TGI (SW-620 colon): > 100 µM; TGI (SNB-19 CNS): > 100 µM; TGI (MOLT-4 leukemia): > 100 µM; TGI (LOX IMVI melanoma): > 100 µM; TGI (U251 CNS): > 100 µM; TGI (MDA-N): > 100 µM; TGI (A498 renal): > 100 µM; TGI (OVCAR-4 ovarian): > 100 µM; TGI (RXF 393 renal): > 100 µM; TGI (HOP-92 NSCLC): > 100 µM; TGI (IGROV1 ovarian): > 100 µM; TGI (SN12C renal): > 100 µM; TGI (SF-268 CNS): > 100 µM; TGI (HCT-116 colon): > 100 µM; TGI (ACHN renal): > 100 µM; TGI (OVCAR-5 ovarian): > 100 µM; TGI (UACC-257 melanoma): > 100 µM; TGI (MDA-MB-435): > 100 µM; TGI (SK-MEL-28 melanoma): > 100 µM; TGI (CAKI-1 renal): > 100 µM; TGI (BT-549 breast): > 100 µM

Question: What does the source list for `O=C1CC2(c3ccccc3)ON=C(c3ccccc3)N2c2ccccc2N1` (stereo not given)?
Answer: TGI (UO-31 renal): > 100 µM; TGI (NCI-H522 lung): > 100 µM; TGI (SR leukemia): > 100 µM; TGI (NCI-H460 lung): > 100 µM; TGI (COLO 205 colon): > 100 µM; TGI (KM12 colon): > 100 µM; TGI (K-562 leukemia): > 100 µM; TGI (EKVX NSCLC): > 100 µM; TGI (SF-295 CNS): > 100 µM; TGI (M14 melanoma): > 100 µM; TGI (T-47D breast): > 100 µM; TGI (DU-145 prostate): > 100 µM; TGI (TK-10 renal): > 100 µM; TGI (UACC-62 melanoma): > 100 µM; TGI (SNB-75 CNS): > 100 µM; TGI (786-0 renal): > 100 µM; TGI (NCI-H226 lung): > 100 µM; TGI (HT29 colon): > 100 µM; TGI (HOP-62 NSCLC): > 100 µM; TGI (OVCAR-3 ovarian): > 100 µM; TGI (SK-OV-3 ovarian): 51.7 µM; TGI (MALME-3M melanoma): > 100 µM; TGI (HCT-15 colon): > 100 µM; TGI (SF-539 CNS): > 100 µM; TGI (NCI/ADR-RES ovarian): > 100 µM; TGI (OVCAR-8 ovarian): > 100 µM; TGI (HL-60(TB) leukemia): > 100 µM; TGI (PC-3 prostate): > 100 µM; TGI (RPMI-8226 leukemia): > 100 µM; TGI (MDA-MB-231 breast): > 100 µM; TGI (NCI-H23 lung): > 100 µM; TGI (SW-620 colon): > 100 µM; TGI (SNB-19 CNS): > 100 µM; TGI (MOLT-4 leukemia): > 100 µM; TGI (CCRF-CEM leukemia): > 100 µM; TGI (LOX IMVI melanoma): > 100 µM; TGI (U251 CNS): > 100 µM; TGI (MDA-N): > 100 µM; TGI (A498 renal): > 100 µM; TGI (HCC-2998 colon): > 100 µM; TGI (OVCAR-4 ovarian): > 100 µM; TGI (RXF 393 renal): > 100 µM; TGI (HOP-92 NSCLC): 83.6 µM; TGI (SK-MEL-2 melanoma): > 100 µM; TGI (IGROV1 ovarian): > 100 µM; TGI (SN12C renal): > 100 µM; TGI (SF-268 CNS): > 100 µM; TGI (HCT-116 colon): > 100 µM; TGI (ACHN renal): > 100 µM; TGI (MCF7 breast): > 100 µM; TGI (OVCAR-5 ovarian): > 100 µM; TGI (UACC-257 melanoma): > 100 µM; TGI (MDA-MB-435): 53.2 µM; TGI (SK-MEL-28 melanoma): > 100 µM; TGI (BT-549 breast): > 100 µM
